What was measured:
[1] = system: Bcl-xL; test: Bcl-xL protein accumulation by western blot in Spon8 cells; assay type: cell-based, mouse
Method: The indicated cell lines were treated with cisplatin at the indicated concentrations on 6-well plates for 72 hours. Cells were lysed with 100 μl of 1× NP40 lysis buffer containing proteinase inhibitors, sheared 10 times with a 28 gauge needle, spun at 16,000×g for 30 minutes, normalized by protein concentration as determined by the Bradford method, and the supernatant boiled for 5 minutes. 20 μl of normalized lysate was resolved by SDS-PAGE and immunoblotting analyzed with indicated antibodies. The following antibodies were used: rabbit anti-CLPTM1L (Novus Biologicals, Littleton, Colo.), mouse anti-Actin (Santa Cruz Biotechnology, Santa Cruz, Calif.), mouse anti-Bcl2 clone 124 (Dako, Carpinteria, Calif.), rabbit anti-Bax #2774 (Cell Signaling, Boston, Mass.), mouse anti-p53 (Ab-1) (Oncogene, San Diego, Calif.), Bcl-xL-rabbit Bcl2L1 (AbCam, Cambridge, Mass.), rabbit anti-H-Ras (Novus Biologicals, Littleton, Colo.), mouse anti-K-Ras(BD Transduction Labs, Franklin, N.J.), anti-Akt(Cell Signaling, Boston, Mass.), antipAKT(Thr308)(Cell Signaling, Boston, Mass.), rabbit anti-PIK3C3 (Cell Signaling, Boston, Mass.), rabbit anti-BAD(AbCam, Cambridge, Mass.). Quantitation of Western analyses of three independent cultures was done using Image J software available online from the National Institutes of Heath at rsbweb.nih.gov on the World Wide Web.

[2] = system: Spon8 mouse lung tumor cells; test: Viability assay (MTS) after cisplatin treatment; assay type: cell-based; settings: 20 μM cisplatin for 48 hours; compared to vector and sh1; p=9.6E-6
Method: Cells stably expressing shRNA vectors as described above were seeded onto 12-well tissue culture dishes at equal densities of approximately 50% in triplicate. After attachment overnight followed by 48 hours of treatment with the indicated concentrations of cisplatin (Sigma, St. Louis, Mo.) dissolved in media. DMSO concentrations in culture media were kept consistent and were at or below 0.08%. Cell viability was measured by Cell Titer 96 Aqueous One Solution Cell Proliferation Assay (MTS) in triplicate. P-values were determined by one-tailed Student's T-Test.

[3] = system: 3T3 mouse fibroblasts; test: Transformation assay (morphology, foci) in Ras-transfected 3T3 fibroblasts; assay type: cell-based
Method: (§1) NIH3T3 cells acquired within the last 6 months from ATCC were cultured in DMEM 10% FBS to 80% confluence before co-transfecting with the indicated expression and shRNA vectors using Lipofectamine LTX (Invitrogen, Carlsbad, Calif.). Cells were split, allowed to attach and placed on puromycin selection for 3 days or until mock transfected cells were dead. Cells were plated at the indicated densities and fed as needed. For whole plate staining, cells were fixed in cold methanol and stained with crystal violet. For anchorage independent growth, cell were suspended in 0.4% agarose in complete growth media and plate over 0.8% bottom agar at 10,000 cells per well (H-Ras) or 20,000 cells per well (K-Ras) of a six-well tissue culture dish in triplicate. Cells were fed twice a week over 4 weeks in culture, and colonies were stained using cell staining reagent and protocol from Millipore's Cell Transformation Detection Assay. Images of wells were captured and analyzed by Image J software to count colonies. P-values were determined using a two-tailed Student's T-Test.

[4] = system: oncogenic K-Ras driven lung tumors; test: shRNA/K-Ras LSL-G12D/+ mouse model of lung tumorigenesis; assay type: in vivo; settings: for inhibition of tumor number / inhibition of tumor load: vs scrambled shRNA
Method: Mouse experiments were conducted as described by DuPage et al., Nat. Protoc. 4:1064 (2009), with the following modifications. pLKO.1 empty shRNA vector was obtained from Open Biosystems (Foster City, Calif.). Short hairpin inserts were designed to specifically target transcripts. Oligos were ordered from IDT (Coralville, Iowa). Complimentary oligos were heated to 95° C., cooled to room temperature overnight and ligated into digested pLKO.1. Validated constructs used in mouse experiments had the following short-hairpin sequences:
Vectors were modified by replacing the PGK promoter and puromycin resistance orf with the CMV promoter driving expression of CRE-GFP. CMV promoter was sub-cloned from pLenti CMV GFP Puro plasmid #17448 (Addgene) and CRE-GFP was sub-cloned from pCAG:CRE-GFP plasmid #13776 (Addgene). Virus was packaged in 293T cells and functionally titered by infecting 3TZ cells (LSL-LacZ), which express LacZ upon Cre recombinase activation. Mice were anesthetized with 200 μL Avertin ([…]). 10^^4 or 10^^3 active virus particles in 50 μl of phosphate buffered saline was delivered via intratracheal intubation using a 22-gauge IV catheter under general anesthesia to 10 transgenic mice per group (LSL-K-RasG12D (Mouse Models of Human Cancers Consortium (MMHCC) Strain 01XJ6, Jackson Laboratory #008179 (B6), #008180 (129)). […] The thoracic cavity was surgically opened to expose the lungs. The trachea was cannulated with a 22G catheter and lungs were inflated with Tellyesniczky's solution (70% ethanol, 2% formaldehyde, and 5% acetic acid) at 25 cm of pressure by gravity. Lungs were fixed overnight and the solution was exchanged to 70% ethanol the next day. Lungs were photographed, lobes were separated and cleaned. Tumors were counted and measured with digital calipers. A cutoff for visible tumors of 0.2 mm diameter was used. Tumor volume was determined by the following formula: A=4/3πr^3. P-values were determined using a two-tailed Student's T-Test.

[5] = system: phosphorylated (T308) Akt; test: Western blotting for phosphorylated (T308) Akt in NIH3T3 cells with K-RasV12 expression; assay type: cell-based, mouse; settings: NIH3T3 cells expressing K-RasV12, CLPTM1L stably depleted
Method: (§2) The indicated cell lines were treated with cisplatin at the indicated concentrations on 6-well plates for 72 hours. Cells were lysed with 100 μl of 1× NP40 lysis buffer containing proteinase inhibitors, sheared 10 times with a 28 gauge needle, spun at 16,000×g for 30 minutes, normalized by protein concentration as determined by the Bradford method, and the supernatant boiled for 5 minutes. 20 μl of normalized lysate was resolved by SDS-PAGE and immunoblotting analyzed with indicated antibodies. […] Quantitation of Western analyses of three independent cultures was done using Image J software available online from the National Institutes of Heath at rsbweb.nih.gov on the World Wide Web.
(§3) NIH3T3 cells acquired within the last 6 months from ATCC were cultured in DMEM 10% FBS to 80% confluence before co-transfecting with the indicated expression and shRNA vectors using Lipofectamine LTX (Invitrogen, Carlsbad, Calif.). […] Images of wells were captured and analyzed by Image J software to count colonies. P-values were determined using a two-tailed Student's T-Test.

[6] = system: Bcl-xL; test: Western blotting for Bcl-xL in NIH3T3 cells with K-RasV12 expression; assay type: cell-based, mouse
Method: as §2, §3

[7] = system: CLPTM1L transcript; test: CLPTM1L transcript knockdown by RT-quantitative real-time PCR in Spon8 cells; assay type: cell-based; settings: Spon8 mouse lung tumor cells; qPCR normalized to beta-Actin
Method: Spon8 cells were cultured in RPMI1640 plus 2% FBS (Invitrogen, Carlsbad, Calif.). Cells were transduced with lentiviral short-hairpin RNA (shRNA) vectors based on the pLKO.1 vector and designed to specifically target human CLPTM1L transcript (Sigma, St. Louis). Empty vector or vector knocking down CLPTM1L transcript were first packaged in 293T cells (Orbigen, San Diego, Calif.) by transfection with helper plasmids using Lipofectamine LTX (Invitrogen, Carlsbad, Calif.) and then transduced into Spon 8 cells with 8 μg/ml Polybrene (Sigma, St. Louis, Mo.). Media was replaced 24 hours after transduction, and cells were split 1:4 48 hours after transduction. […]
Patient matched tumor and tumor-adjacent normal RNA samples were obtained from the Tissue Procurement Core at Washington University in St. Louis under protocol approved by the Institutional Review Board at Washington University in St. Louis School of Medicine, Human Research Protection Office. […] Quantitative real-time PCR (qPCR) was conducted using the method as described previously (Chaparro, Wen et al. 2005). […] Quantitative RT-PCR assay was done using the SYBR Green PCR Master Mix (Applied Biosystems, Foster City, Calif.). […] Data were collected and analyzed with Stratagene Mx3000 software. […] Primer set efficiency and linearity was calculated, and normalization was performed in accordance with MIQE guidelines. […]

[8] = system: Ras transformed 3T3 cells; test: Soft agar anchorage independent growth assay; assay type: cell-based, mouse
Method: as §1

[9] = system: TERT transcript; test: TERT transcript knockdown in Spon8 cells; assay type: cell-based; settings: Spon8 mouse lung tumor cells
[10] = high dose group 10^4 functional particles intratracheal, 24 weeks
[11] = low dose group 10^3 particles, 28 weeks post-infection

Row | Molecule | Bcl-xL expression upon CLPTM1L depletion [1] | sensitivity to cisplatin-induced killing (MTS viability) [2] | transformed phenotype (foci) on stable co-transfection with H-RasV12 or K-RasV12 [3] | morphological changes with shRNA alone compared to vector controls ([3]; no Ras) | average tumor load [4, 10] | average tumor number [4, 10] | inhibition of tumor number ([4]; high dose group, p=0.02) | inhibition of tumor load ([4]; high dose group, p=0.03) | average tumor load [4, 11] | average tumor number [4, 11] | inhibition of tumor load ([4]; low dose group, p<0.002) | inhibition of tumor number ([4]; low dose group, p<0.004) | K-RasV12 induced elevation of phospho-Akt [5] | K-RasV12 induced elevation of Bcl-xL ([6]; NIH3T3 cells expressing K-RasV12, CLPTM1L stably depleted) | Bcl-xL expression with loss of CLPTM1L ([6]; NIH3T3 mouse fibroblasts, western blotting) | knockdown of CLPTM1L at the transcript level [7] | average colonies per well in soft agar ([8]; H-RasV12 expressing 3T3 cells, 10,000 cells per well, control 18 colonies, p<0.03) | inhibition of soft agar colony formation ([8]; K-RasV12 transformed 3T3 cells, 20,000 cells per well, control 56 colonies per well, p<0.02) | knockdown of TERT at the transcript level [9] | tumor number and load compared with scrambled control ([4]; high dose group, p=0.58)
1 | shCLP168m: shRNA targeting CLPTM1L, mature sense strand AACTGCATCCAGCCCTATCTG (SEQ ID NO: 4), pLKO.1 lentiviral vector | concurrently reduced | increased sensitivity to cisplatin | no transformed foci were observed | did not demonstrate morphological changes | 3.4 mm^3 | 46 tumors per mouse | 60% | 74% | 0.01 mm^3 | 0.14 tumors | 98% | 98% | ablated | ablated | decrease in Bcl-xL expression | 80% | one | 47% | – | –
2 | shTERT1: lentiviral shRNA vector targeting TERT (oligos SEQ ID NO: 28/29), used as additional control (nucleic acid) sense: CCGGAAGTCTGCCGTTGCCCAAGAGCTCGAGCTCTTGGGCAACGGCAGACTTTTTTT antisense: AATTAAAAAAACTGCATCCAGCCCTATCTGCTCGAGCAGATAGGGCTGGATGCAGTT | – | – | – | – | 10.2 mm^3 | 122 tumors per mouse | – | – | 0.41 mm^3 | 5 tumors | – | – | – | – | – | – | – | – | 50% | statistically similar to the control group

Reference: patent publication US9265789B2, “Targeting CLPTM1L by RNA interference for treatment and prevention of cancer” (The Medical College of Wisconsin, Inc., priority 2013, dated 2016)
